Laboratory results taken from patent US8236761B2, “C-Met receptor regulation by angiotensin IV (AT4) receptor ligands” (Washington State University Research Foundation, priority 2006, dated 2012).
Non-standard residues stand in square brackets, D forms with d. No end group written: not given here. Nle = CCCC[C@H](N)C(=O)O

What was measured:
[1] = Chronic treatment: body weight, DXA body composition and pathology; type: in vivo, C57BL/6 mice
Method: Twenty-four five-week old C57BL/6 male mice were equally and randomly assigned to two groups. One group was assigned as control and the other treated. Treated mice were administered intermuscular (IM) injections of Norleual at 21 μg/kg/day, (40 μl injectable volume) every 48 hours for the duration of one hundred and one days. Injection sites were alternated between left and right gluteus medius. BD Ultra-Fine 3/10 cc insulin syringes were used as delivery apparatus. Mice were housed two per cage and had unlimited access to food and water. Mice were monitored daily for signs of morbidity. Mice were also weighed on a weekly basis. C57/BL6 mice were treated either with vehicle control or with Norleual chronically for 101 days.
To assess body composition of the mice, the Comparative Orthopedic Research Laboratory at the Washington State University Veterinary School was utilized. A Hologic QDR4500A fan beam dual-energy X-ray absorptiometer (DXA, Hologic Inc., Bedford, Mass.) was used to assess the lean body mass (muscle), fat, and bone composition of each mouse on day one hundred one of the experiment. Mice were sacrificed and DXA scans were performed. Due to the volume limitations of the DXA instrument and to permit time for gross pathology, half of the mice were sacrificed and analyzed on day 101. The remaining mice were sacrificed and analyzed 22 hours later. Control and treated mice were split evenly among the two sacrifice episodes. Data were collected and the control group was compared to the Norleual treated group by two-tailed student's t-tests using InStat software (GraphPad, San Diego, Calif.). Figures were created using GraphPad Prism software.
Gross pathology and microscopic pathological evaluation on autopsy tissue were performed in blinded fashion on animals following sacrifice, with attention to multiple organs.

neovascularization = experiment: Disc angiogenesis assay (subcutaneous sponge disc); type: in vivo, Sprague Dawley rats; conditions: 50 μg per disc core, 14 days, rat
Method: FIG. 19 depicts effects on angiogenesis of angiotensin-like factors in a rat in vivo disc angiogenesis assay. Vascularization was quantified by digital image analysis of fixed and stained discs recovered from animals 14 days after subcutaneous implantation of sponge discs containing the indicated compounds.
Disc Angiogenesis Assay. […] A 2 mm core was removed from the center of each disc, saturated with 50 μg of Nle^1-AngIV (SEQ ID NO:41), Nle^1-Leu^3-Ψ(CH2NH2)^3-4-AngIV, Hexamide, or ethanol (control), air dried, then sealed using a fixative (Elvax, DuPont) to allow sustained delivery of the drug treatment into the disc and adjacent tissues. The cores were dried for 30 min, then reinserted into the sponge discs. Impermeable top and bottom covers were prepared by coating 10 mm diameter paper discs with a plexiglass coating, then glued to the top and bottom of the sponge discs, leaving only the rim of the disc available for centripetal cellular penetration. Just prior to implantation, the discs were soaked briefly in sterile saline.
Thirty-two Sprague Dawley female rats (225-275 gr) were used to evaluate four compounds for angiogenic or anti-angiogenic properties using the disc angiogenesis assay. Animals were anesthetized using sodium pentobarbital (40 mg/kg IP). The dorsum was then shaved and aseptically prepped. Each animal received four discs. Animals receiving treated discs were implanted with 2 treated discs and 2 ethanol-soaked control discs. Thus, in a group of 4 animals there were 8 treatment discs, and 8 control discs. These control discs were used to determine whether the ligand had potential systemic effects. Another group of 4 animals received only ethanol-soaked control discs (spontaneous growth controls or SGC discs) for an n=16. However, one SGC was fragmented during processing leaving an n=15.
Four 2 cm cutaneous incisions were made along the dorsum (left thoracic, right thoracolumbar, left thoracolumbar, and right lumbar), and subcutaneous pouches opened in the fascia using blunt dissection. Discs were moistened in sterile saline, inserted deep to the pouch, and the skin closed with sterile surgical staples. Animals were recovered under heat lamps until sternally recumbent, then individually housed for 14 days in an AAALAC accredited facility (water and food ad libitum; 12/12 hour light cycle).
After 14 days the animals were euthanized in a CO2 chamber and the discs were removed. […] Cellular penetration into the discs was quantified using a digital imaging system (Imaging Research Inc., St. Catharines, Ontario, Canada). The total area of the disc was calculated, as was the area containing stained cells. […]
Results. Following staining with toludine blue or Factor VIII, neovascularization was quantitated by densitometry.

For “Nle-Tyr-Leu-ψ-His-Pro-Phe ([Nle]YLHPF; also: reduced peptide bond psi(CH2NH2) between Leu and His) [Norleual]”, the “Visual inspection of animals versus control” value ([1]; 101 days treatment) was “visibly less bulky”, the “Scale measured weights versus control mice” value ([1]; IM 21 μg/kg/day every 48 hours, day 101, p=0.0130) was “significantly lower” and the “Distribution of lipid vacuoles in the liver relative to control animals” value ([1]; autopsy tissue, blinded pathology) was “marked reduction”. For the same substance, the “DXA measured bone mineral density versus control mice” value ([1]; day 101) was “not statistically significant”, the “Percent fat versus control mice (DXA)” value ([1]; day 101, p<0.0001) was “significantly lower” and the “DXA measured mass versus control mice” value ([1]; day 101, p=0.0146) was “significantly lower”. The “DXA measured area versus control mice” value ([1]; day 101, p=0.023) was “significantly lower”, the “Lean body mass+bone mineral content (BMC) versus control mice (DXA)” value ([1]; day 101, p=0.18) was “not significantly different” and the “Effect on angiogenesis in disc assay versus SGC discs” value (neovascularization) was “antagonist activity”.
